Tests used:
DPP-4 enzyme = molecular target: T1, DPP-4 enzyme (Homo sapiens, UniProt P27487); assay: Test of the inhibition activity to the DPP-4 enzyme (fluorescence, substrate Gly-Pro-7-amido-4-methylcoumarin); assay type: biochemical; settings: in vitro; compounds of the examples; read-out: DPP-4 inhibition ID50
T1 construct: purchased SIGMA
Excerpt: Test of the inhibition activity of the compound of the present invention to the DPP-4 enzyme: […]

[1] = stability test of human liver microsomes; assay type: in vitro ADME

T1 sequence (P27487 whole entry, species assumed): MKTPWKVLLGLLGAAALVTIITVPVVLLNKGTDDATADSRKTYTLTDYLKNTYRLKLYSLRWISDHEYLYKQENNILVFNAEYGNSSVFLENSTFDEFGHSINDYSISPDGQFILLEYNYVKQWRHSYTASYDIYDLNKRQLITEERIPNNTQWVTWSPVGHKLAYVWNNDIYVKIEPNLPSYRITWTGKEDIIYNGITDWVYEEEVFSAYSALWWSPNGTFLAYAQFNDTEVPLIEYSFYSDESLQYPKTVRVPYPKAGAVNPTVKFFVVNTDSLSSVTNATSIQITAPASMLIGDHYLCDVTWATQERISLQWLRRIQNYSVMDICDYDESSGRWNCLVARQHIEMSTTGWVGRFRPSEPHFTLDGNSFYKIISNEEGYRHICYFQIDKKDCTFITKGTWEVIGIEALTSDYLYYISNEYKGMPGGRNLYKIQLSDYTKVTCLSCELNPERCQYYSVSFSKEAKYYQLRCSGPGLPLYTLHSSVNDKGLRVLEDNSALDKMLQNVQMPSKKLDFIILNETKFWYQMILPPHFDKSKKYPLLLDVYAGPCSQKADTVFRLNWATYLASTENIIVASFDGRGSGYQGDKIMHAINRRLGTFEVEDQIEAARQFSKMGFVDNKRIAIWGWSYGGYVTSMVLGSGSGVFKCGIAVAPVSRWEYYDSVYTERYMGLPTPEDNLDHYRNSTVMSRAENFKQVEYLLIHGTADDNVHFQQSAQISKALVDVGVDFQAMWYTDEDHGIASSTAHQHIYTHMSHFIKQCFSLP

Row | Structure (SMILES) | IC50 (DPP-4 enzyme) [nM] | metabolism stability compared with MK-3102 [1]
1 | CC1CCN(S(=O)(=O)n2cc3c(n2)CN([C@H]2CO[C@H](c4cc(F)ccc4F)[C@@H](N)C2)C3)CC1 [Compound 14] | 0.4 | –
2 | CN1CCN(S(=O)(=O)n2cc3c(n2)CN([C@H]2CO[C@H](c4cc(F)ccc4F)[C@@H](N)C2)C3)CC1 [Compound 4, (2R, 3S, 5R)-2-(2,5-difluorophenyl)-5-[2-(N-methylpiperazinesulfonyl)-2,6-dihydropyrrolo[3,4,-c]pyrazol-5(4H)-yl]tetrahydro-2H-pyran-3-amine] | 0.6 | better metabolism stability
3 | N[C@H]1C[C@@H](N2Cc3cn(S(=O)(=O)N4CCN(C5CCCC5)CC4)nc3C2)CO[C@@H]1c1cc(F)ccc1F [Compound 5, (2R, 3S, 5R)-2-(2,5-difluorophenyl)-5-[2-(4-cyclopentylpiperazine-1-yl-sulfonyl)-2,6-dihydropyrrolo[3,4,-c]pyrazol-5(4H)-yl]tetrahydro-2H-pyran-3-amine] | 0.2 | –
4 | N[C@H]1C[C@@H](N2Cc3cn(S(=O)(=O)N4CCCCC4)nc3C2)CO[C@@H]1c1cc(F)ccc1F [Compound 2, (2R, 3S, 5R)-2-(2,5-difluorophenyl)-5-[2-(piperidinesulfonyl)-2,6-dihydropyrrolo[3,4,-c]pyrazol-5(4H)-yl]tetrahydro-2H-pyran-3-amine] | 0.8 | –
5 | N[C@H]1C[C@@H](N2Cc3cn(S(=O)(=O)N4CCOCC4)nc3C2)CO[C@@H]1c1cc(F)ccc1F [Compound 1, (2R, 3S, 5R)-2-(2,5-difluorophenyl)-5-[2-(morpholinesulfonyl)-2,6-dihydropyrrolo[3,4,-c]pyrazol-5(4H)-yl]tetrahydro-2H-pyran-3-amine] | 0.5 | better metabolism stability

Continued, values first:

Row | IC50 (DPP-4 enzyme) [nM] | metabolism stability compared with MK-3102 [1] | Structure (SMILES)
6 | 0.5 | – | N[C@H]1C[C@@H](N2Cc3cn(S(=O)(=O)N4CCC4)nc3C2)CO[C@@H]1c1cc(F)ccc1F [Compound 13, (2R, 3S, 5R)-2-(2,5-difluorophenyl)-5-[2-(azetidine-1-sulfonyl)-2,6-dihydropyrrolo[3,4,-c]pyrazol-5(4H)-yl]tetrahydro-2H-pyran-3-amine]
7 | 0.3 | – | N[C@H]1C[C@@H](N2Cc3cn(S(=O)(=O)N4CCCC4)nc3C2)CO[C@@H]1c1cc(F)ccc1F [Compound 3]
8 | 0.7 | – | N[C@H]1C[C@@H](N2Cc3cn(S(=O)(=O)N4CC5CCCCC5C4)nc3C2)CO[C@@H]1c1cc(F)ccc1F (stereo partly drawn) [Compound 15, (2R, 3S, 5R)-2-(2,5-difluorophenyl)-5-[2-(perhydroindole-1 sulfonyl)-2,6-dihydropyrrolo[3,4,-c]pyrazol-5(4H)-yl]tetrahydro-2H-pyran-3-amine]

Reference: US20170217964A1, “AMINOTETRAHYDROPYRAN DERIVATIVE USED AS DIPEPTIDYL PEPTIDASEIV INHIBITOR” (FUJIAN BORO MEDICAL CO., LTD., priority 2014, published 2017)
